Assay results as given in ChEMBL document CHEMBL4346710, “Discovery of 7H-pyrrolo[2,3-d]pyrimidine derivatives as selective covalent irreversible inhibitors of interleukin-2-inducible T-cell kinase (Itk)” (Eur J Med Chem, 2019).
Calls of active or inactive are those of the source. The rule behind the calls is not given here.

Legend:
[1] = biological target: Tyrosine-protein kinase ZAP-70 (Homo sapiens) (UniProt P43403); assay: Inhibition of recombinant full length human His-tagged ZAP70 cytoplasmic domain expressed in baculovirus expression system assessed as enzyme residual activity at 0.4 uM using fluorophore-labeled tyrosine-07 peptide as substrate incubated for 60 mins by Z'-LYTE assay relative to control
Jurkat [2] = assay: Induction of apoptosis in human Jurkat cells assessed as upregulation of cleaved PARP at 1 to 20 uM incubated for 24 hrs by Western blot analysis; type: functional, cell-based
H9 = assay: Growth inhibition of human H9 cells incubated for 72 hrs by CellTiter-Glo luminescent cell viability assay; type: functional; details: H9, 72 h
MOLT-4 = assay: Induction of apoptosis in human MOLT4 cells assessed as upregulation of cleaved PARP at 1 to 20 uM incubated for 24 hrs by Western blot analysis; type: functional, cell-based
[3] = biological target: Tyrosine-protein kinase BTK (Homo sapiens, UniProt Q06187); assay: Inhibition of recombinant human full-length N-terminal His6-tagged BTK expressed in baculovirus infected Sf21 insect cells using STK substrate by HTRF assay
Jurkat [4] = assay: Growth inhibition of human Jurkat cells incubated for 72 hrs by CellTiter-Glo luminescent cell viability assay; type: functional
CCRF-CEM = assay: Induction of apoptosis in human CCRF-CEM cells assessed as downregulation of caspase3 at 1 to 5 uM incubated for 24 hrs by Western blot analysis; type: functional, cell-based
[5] = biological target: Serine/threonine-protein kinase Chk2 (Homo sapiens) (UniProt O96017); assay: Inhibition of recombinant full length human His-tagged CHEK2 expressed in baculovirus expression system assessed as enzyme residual activity at 0.4 uM using fluorophore-labeled serine/threonine-07 peptide as substrate incubated for 60 mins by Z'-LYTE assay relative to control
[6] = biological target: RAC-alpha serine/threonine-protein kinase (Homo sapiens) (UniProt P31749); assay: Inhibition of recombinant full length human His-tagged AKT1 expressed in baculovirus expression system assessed as enzyme residual activity at 0.4 uM using fluorophore-labeled serine/threonine-06 peptide as substrate incubated for 60 mins by Z'-LYTE assay relative to control
[7] = biological target: Epidermal growth factor receptor (Homo sapiens, UniProt P00533); assay: Inhibition of human recombinant GST-tagged EGFR cytoplasmic domain (668 to 1210 residues) expressed in baculovirus expression system assessed as enzyme residual activity at 0.4 uM using fluorophore-labeled tyrosine-4 peptide as substrate by Z'-Lyte assay relative to control
[8] = biological target: Calcium/calmodulin-dependent protein kinase type IV (Homo sapiens) (UniProt Q16566); assay: (§1) Inhibition of recombinant human full length GST-tagged CAMK4 expressed in Escherichia coli expression system assessed as enzyme residual activity at 0.4 uM using fluorophore-labeled serine/threonine-13 peptide as substrate incubated for 60 mins by Z'-LYTE assay relative to control
TAK1/TAB1 = TAK1/TAB1 (Homo sapiens, UniProt O43318); assay: Inhibition of tracer 222 binding to recombinant full-length human His-tagged MAP3K7/MAP3K7IP1 (437 to 504 residues) expressed in baculovirus expression system by Lanthascreen assay
[9] = biological target: T1, Tyrosine-protein kinase ITK/TSK (Homo sapiens, UniProt Q08881); assay: Inhibition of recombinant human N-terminal His6-tagged ITK (352 to 617 residues) expressed in baculovirus infected Sf21 insect cells using STK substrate by HTRF assay
T1 sequence (Q08881 whole entry): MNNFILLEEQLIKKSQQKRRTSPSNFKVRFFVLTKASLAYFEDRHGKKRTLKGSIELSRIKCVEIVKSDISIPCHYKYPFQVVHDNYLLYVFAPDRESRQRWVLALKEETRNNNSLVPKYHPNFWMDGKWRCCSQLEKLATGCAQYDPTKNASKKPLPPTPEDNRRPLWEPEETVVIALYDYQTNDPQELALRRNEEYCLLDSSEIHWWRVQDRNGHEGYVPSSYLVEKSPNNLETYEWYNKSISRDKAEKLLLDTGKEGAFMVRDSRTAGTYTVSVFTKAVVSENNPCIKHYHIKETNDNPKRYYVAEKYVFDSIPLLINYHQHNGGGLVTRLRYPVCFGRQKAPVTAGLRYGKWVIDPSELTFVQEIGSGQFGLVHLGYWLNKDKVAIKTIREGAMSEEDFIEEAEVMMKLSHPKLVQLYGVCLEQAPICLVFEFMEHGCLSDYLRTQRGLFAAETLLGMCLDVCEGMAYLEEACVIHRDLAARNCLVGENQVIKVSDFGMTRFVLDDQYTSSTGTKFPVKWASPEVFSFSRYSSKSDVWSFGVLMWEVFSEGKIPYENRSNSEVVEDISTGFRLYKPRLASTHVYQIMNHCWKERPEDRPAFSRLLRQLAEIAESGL

[10] = biological target: Tyrosine-protein kinase ABL1 (Homo sapiens) (UniProt P00519); assay: Inhibition of recombinant full length human His-tagged ABL1 cytoplasmic domain expressed in baculovirus expression system assessed as enzyme residual activity at 0.4 uM using fluorophore-labeled tyrosine-2 peptide as substrate incubated for 60 mins by Z'-LYTE assay relative to control
[11] = biological target: Rho-associated protein kinase 2 (Homo sapiens) (UniProt O75116); assay: as §1, with “N-terminal” for “full length”, “ROCK2 catalytic domain (1 to 552 residues)” for “CAMK4”, “baculovirus” for “Escherichia coli”
Rho-associated protein kinase 2 (Homo sapiens), sequence (O75116 whole entry, looked up, the tested form may be a part): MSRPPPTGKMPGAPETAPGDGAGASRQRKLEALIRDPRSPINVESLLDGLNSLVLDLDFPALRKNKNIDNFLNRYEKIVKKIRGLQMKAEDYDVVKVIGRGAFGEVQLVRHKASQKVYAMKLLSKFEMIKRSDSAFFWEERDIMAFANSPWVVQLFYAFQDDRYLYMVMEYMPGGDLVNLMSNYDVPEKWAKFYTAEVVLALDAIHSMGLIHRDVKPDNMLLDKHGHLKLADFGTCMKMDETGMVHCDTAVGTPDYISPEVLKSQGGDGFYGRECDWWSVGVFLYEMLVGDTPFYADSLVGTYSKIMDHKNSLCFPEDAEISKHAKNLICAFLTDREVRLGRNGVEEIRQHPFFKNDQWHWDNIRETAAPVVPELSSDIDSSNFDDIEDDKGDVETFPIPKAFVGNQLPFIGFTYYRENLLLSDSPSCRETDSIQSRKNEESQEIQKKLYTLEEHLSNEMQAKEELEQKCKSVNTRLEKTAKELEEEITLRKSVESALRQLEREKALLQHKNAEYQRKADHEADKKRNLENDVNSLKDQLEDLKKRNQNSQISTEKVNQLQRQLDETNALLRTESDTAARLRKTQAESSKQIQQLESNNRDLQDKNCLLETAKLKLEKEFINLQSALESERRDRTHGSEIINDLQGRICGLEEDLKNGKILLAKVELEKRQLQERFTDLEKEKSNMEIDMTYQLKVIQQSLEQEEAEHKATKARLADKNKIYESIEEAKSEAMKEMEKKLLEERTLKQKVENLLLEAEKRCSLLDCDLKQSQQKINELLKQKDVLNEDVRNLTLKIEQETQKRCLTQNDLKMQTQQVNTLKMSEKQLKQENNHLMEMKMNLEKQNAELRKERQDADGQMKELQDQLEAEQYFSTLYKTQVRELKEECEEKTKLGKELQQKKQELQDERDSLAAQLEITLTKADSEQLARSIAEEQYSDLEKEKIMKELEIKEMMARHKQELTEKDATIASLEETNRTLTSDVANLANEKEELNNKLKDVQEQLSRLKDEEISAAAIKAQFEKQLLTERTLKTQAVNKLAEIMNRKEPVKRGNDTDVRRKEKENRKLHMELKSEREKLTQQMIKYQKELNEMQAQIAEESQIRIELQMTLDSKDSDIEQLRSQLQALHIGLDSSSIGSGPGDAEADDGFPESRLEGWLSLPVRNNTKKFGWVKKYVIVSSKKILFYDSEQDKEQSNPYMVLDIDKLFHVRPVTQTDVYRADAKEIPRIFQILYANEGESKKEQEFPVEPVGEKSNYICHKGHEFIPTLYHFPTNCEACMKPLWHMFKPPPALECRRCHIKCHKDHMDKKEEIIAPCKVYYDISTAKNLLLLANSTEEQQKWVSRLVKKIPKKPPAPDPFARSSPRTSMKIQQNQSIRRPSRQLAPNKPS

Tyrosine-protein kinase ABL1 (Homo sapiens), sequence (P00519 whole entry, the tested form may be a part): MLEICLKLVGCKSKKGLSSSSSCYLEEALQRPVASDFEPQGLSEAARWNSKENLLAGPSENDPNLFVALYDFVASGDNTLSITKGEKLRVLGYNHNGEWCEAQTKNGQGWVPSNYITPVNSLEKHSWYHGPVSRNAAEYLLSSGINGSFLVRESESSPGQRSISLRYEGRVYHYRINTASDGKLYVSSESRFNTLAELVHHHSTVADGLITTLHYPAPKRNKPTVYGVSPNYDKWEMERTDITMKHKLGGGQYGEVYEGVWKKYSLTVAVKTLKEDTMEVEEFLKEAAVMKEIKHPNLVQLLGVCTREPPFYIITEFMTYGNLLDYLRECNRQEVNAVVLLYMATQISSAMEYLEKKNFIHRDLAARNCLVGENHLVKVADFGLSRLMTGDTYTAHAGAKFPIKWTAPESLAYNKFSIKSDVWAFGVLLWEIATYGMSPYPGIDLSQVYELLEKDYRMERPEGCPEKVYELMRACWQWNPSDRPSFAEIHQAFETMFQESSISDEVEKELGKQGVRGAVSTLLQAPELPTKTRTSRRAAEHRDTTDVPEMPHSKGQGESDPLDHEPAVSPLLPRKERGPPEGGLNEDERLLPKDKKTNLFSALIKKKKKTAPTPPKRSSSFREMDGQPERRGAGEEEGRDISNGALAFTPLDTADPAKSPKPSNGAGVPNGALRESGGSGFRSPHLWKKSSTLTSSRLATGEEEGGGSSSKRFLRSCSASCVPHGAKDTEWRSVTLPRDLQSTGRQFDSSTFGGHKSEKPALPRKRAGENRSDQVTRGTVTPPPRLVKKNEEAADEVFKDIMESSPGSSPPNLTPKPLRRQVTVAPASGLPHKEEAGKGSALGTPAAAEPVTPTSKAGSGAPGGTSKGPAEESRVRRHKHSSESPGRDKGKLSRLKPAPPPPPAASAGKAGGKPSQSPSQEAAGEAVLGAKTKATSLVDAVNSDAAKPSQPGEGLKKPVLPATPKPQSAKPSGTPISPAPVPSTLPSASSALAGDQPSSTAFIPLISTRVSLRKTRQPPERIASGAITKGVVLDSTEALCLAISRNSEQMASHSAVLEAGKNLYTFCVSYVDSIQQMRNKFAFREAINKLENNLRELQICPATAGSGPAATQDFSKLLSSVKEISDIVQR
TAK1/TAB1, sequence (Q15750 whole entry, the tested form may be a part): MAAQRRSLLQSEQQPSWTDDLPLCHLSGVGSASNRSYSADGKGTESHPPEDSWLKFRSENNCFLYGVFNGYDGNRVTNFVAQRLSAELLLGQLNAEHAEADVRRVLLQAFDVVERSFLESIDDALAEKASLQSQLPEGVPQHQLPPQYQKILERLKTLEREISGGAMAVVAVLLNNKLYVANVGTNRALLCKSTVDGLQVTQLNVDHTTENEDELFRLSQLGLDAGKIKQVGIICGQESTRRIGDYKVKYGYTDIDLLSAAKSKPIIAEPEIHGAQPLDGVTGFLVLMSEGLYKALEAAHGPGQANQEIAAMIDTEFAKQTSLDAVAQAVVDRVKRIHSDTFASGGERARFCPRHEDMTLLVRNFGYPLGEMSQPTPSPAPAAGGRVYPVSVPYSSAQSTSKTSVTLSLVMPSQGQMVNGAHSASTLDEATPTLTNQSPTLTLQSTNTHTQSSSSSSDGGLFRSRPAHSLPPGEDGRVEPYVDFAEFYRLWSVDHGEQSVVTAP
TAK1/TAB1, sequence (O43318 whole entry, the tested form may be a part): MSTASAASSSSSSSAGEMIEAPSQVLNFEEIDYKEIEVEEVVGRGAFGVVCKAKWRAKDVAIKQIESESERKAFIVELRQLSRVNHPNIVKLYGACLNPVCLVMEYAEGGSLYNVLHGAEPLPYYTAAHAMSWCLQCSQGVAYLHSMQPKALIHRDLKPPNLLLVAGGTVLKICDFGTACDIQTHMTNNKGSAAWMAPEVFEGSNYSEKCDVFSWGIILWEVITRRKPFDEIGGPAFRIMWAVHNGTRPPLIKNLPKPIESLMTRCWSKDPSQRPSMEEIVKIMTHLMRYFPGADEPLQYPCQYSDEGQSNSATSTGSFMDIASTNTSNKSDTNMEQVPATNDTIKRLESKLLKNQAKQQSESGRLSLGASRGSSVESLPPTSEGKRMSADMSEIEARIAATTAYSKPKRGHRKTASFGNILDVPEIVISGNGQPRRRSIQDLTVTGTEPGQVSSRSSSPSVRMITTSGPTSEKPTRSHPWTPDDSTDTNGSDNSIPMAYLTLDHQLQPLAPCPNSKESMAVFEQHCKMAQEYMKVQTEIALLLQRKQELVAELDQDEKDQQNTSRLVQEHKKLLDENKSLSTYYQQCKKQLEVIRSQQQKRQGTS
Tyrosine-protein kinase ZAP-70 (Homo sapiens), sequence (P43403 whole entry, the tested form may be a part): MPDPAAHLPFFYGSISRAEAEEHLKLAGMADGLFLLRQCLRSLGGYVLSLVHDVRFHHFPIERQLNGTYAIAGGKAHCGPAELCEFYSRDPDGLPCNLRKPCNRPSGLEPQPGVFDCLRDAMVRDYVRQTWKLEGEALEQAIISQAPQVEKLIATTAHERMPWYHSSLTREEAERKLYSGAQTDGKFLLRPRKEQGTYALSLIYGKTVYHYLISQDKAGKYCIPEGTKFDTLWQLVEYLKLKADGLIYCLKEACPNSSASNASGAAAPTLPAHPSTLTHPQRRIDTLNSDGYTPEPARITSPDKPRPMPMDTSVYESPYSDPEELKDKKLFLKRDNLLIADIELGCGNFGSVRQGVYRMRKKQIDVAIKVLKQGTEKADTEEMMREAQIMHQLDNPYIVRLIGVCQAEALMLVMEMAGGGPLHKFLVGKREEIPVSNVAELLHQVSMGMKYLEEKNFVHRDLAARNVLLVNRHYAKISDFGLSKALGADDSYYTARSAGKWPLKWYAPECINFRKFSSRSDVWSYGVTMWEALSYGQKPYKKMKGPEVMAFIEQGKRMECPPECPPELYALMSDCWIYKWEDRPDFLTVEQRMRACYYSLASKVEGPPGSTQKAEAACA
Serine/threonine-protein kinase Chk2 (Homo sapiens), sequence (O96017 whole entry): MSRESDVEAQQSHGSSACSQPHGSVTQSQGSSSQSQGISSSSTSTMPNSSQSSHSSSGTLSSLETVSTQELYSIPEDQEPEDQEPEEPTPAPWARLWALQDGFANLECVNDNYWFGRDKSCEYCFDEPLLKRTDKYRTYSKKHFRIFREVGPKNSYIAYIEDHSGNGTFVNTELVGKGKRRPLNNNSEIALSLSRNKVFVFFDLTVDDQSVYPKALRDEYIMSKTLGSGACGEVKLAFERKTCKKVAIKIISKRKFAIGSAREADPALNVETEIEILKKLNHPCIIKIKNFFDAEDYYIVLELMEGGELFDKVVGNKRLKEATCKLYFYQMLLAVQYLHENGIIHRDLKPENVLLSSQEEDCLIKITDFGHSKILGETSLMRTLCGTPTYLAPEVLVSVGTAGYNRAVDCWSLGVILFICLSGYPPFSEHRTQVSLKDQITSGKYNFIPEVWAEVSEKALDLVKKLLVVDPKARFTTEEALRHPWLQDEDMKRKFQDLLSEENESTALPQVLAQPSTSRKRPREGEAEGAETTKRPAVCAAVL

Structure (SMILES): C=CC(=O)N1CCC(Oc2nc(Nc3ccc(N4CCOCC4)cc3)nc3[nH]cc(-c4cncc(NC)n4)c23)CC1
- Activity [1]: 95%
- Activity (Jurkat [2]): Active
- GI50 (H9): 0.232 µM
- Activity (MOLT-4): Active
- IC50 [3]: 0.996 µM
- GI50 (Jurkat [4]): 0.184 µM
- Activity (CCRF-CEM): Active
- Activity [5]: 78.7%
- Activity [6]: 96%
- Activity [7]: 62%
- Activity [8]: 107%
- IC50 (TAK1/TAB1): 0.054 µM
- IC50 [9]: 0.0037 µM
- Ki [9]: 0.0063 µM
- Activity [10]: 11.7%
- Activity [11]: 96.3%
